Data on 22 molecules can be found in patent publication US11845760B2, “PRMT5 inhibitors” (AMGEN INC., priority 2020, dated 2023).

The structures appear in SMILES notation. pIC50: −log10 of the molar value. Like-named read-outs stand apart in the source and are kept apart here.

One assay concerns HCT116 MTAP null cells. Description: HCT116 MTAP null cell line proliferation (CellTiter-Glo cell viability, 6 days). It is filed as cell-based. Conditions: HCT116 MTAP null cells, 6 days of treatment, CellTiter-Glo cell viability, read-out: HCT-116 MTAP null IC50. In outline:
(§1)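 Viability by CellTiter-Glo after 6 days' drug exposure in wild-type HCT116 and its MTAP-null knockout, with DMSO-only control. Dosing used either 1:3 steps (top 1 or 10 μM) or 22 points in 1:2 steps (top 10 or 50 μM). IC50 taken where the fitted curve crosses 50% of control.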

The test system of a further assay is HCT116 WT cells. In words: HCT116 WT cell line proliferation (CellTiter-Glo cell viability, 6 days). It is filed as cell-based. Conditions: HCT116 WT (parent) cells, 6 days of treatment, CellTiter-Glo cell viability, read-out: HCT-116 WT IC50. The gist of the method:
as §1
(In general: In ATP-based viability assays light output follows the ATP content of the culture.)

In general, pIC50 refers to −log10 of the IC50, conventionally taken in molar units. Turning to `CC1OCc2c1c(N)nc1ccc(C(=O)N3C(C)COCC3c3ccc(C(F)(F)F)cc3F)cc21` (mixture of isomers) [Example 331, ((3R)-4-amino-3-methyl-1,3-dihydrofuro[3,4-c]quinolin-8-yl)((3R,5S)-3-(2-fluoro-4-(trifluoromethyl)phenyl)-5-methyl-4-morpholinyl)methanone and ((3R)-4-amino-3-methyl-1,3-dihydrofuro[3,4-c]quinolin-8-yl)((3S,5R)-3-(2-fluoro-4-(trifluoromethyl)phenyl)-5-methyl-4-morpholinyl)methanone], the pIC50 in the assay on HCT116 MTAP null cells was 7.46; in the assay on HCT116 WT cells, 6.05.

As for `CCOc1ccc([C@H]2COC[C@@H](C)N2C(=O)c2cc3c4c(c(N)nc3cn2)COC4)nn1` [Example 535, (4-amino-1,3-dihydrofuro[3,4-c][1,7]naphthyridin-8-yl)((3S,5R)-3-(6-ethoxy-3-pyridazinyl)-5-methyl-4-morpholinyl)methanone], the negative-log IC50 (pIC50) was 7.19 in the assay on HCT116 MTAP null cells (HCT116-MTAP null, 144 h) and 5.50 in the assay with HCT116 WT cells (Homo sapiens, HCT-116, 144 h).

Regarding `Nc1nc2ccc(C(=O)N3CCOCC3c3ccc(Br)nn3)cc2c2c1COC2` (racemic) [Example 500, (4-amino-1,3-dihydrofuro[3,4-c]quinolim-8-yl)-[rac-(3S)-3-(6-bromopyridazin-3-yl)morpholin-4-yl]methanone], the negative logarithm of the IC50 (pIC50) with HCT116 MTAP null cells (HCT116-MTAP null, 144 h) was under 6.00; in the assay with HCT116 WT cells (Homo sapiens, HCT-116, 144 h), under 5.00.

On to `Nc1nc2cnc(C(=O)N3CCOC[C@@H]3c3cc(C(F)(F)F)cs3)cc2c2c1COC2` (single isomer, unassigned) [Example 615], for which the pIC50 was 6.62 in the assay on HCT116 MTAP null cells (HCT116-MTAP null, 144 h) and 5.46 in the assay on HCT116 WT cells (Homo sapiens, HCT-116, 144 h).

For the molecule `C[C@H]1OCc2c1c(N)nc1ccc(C(=O)N3[C@@H](C)COC[C@H]3c3ccc(Cl)nc3)cc21` (racemic) [Example 312, ((3R)-4-amino-3-methyl-1,3-dihydrofuro[3,4-c]quinolin-8-yl)((3R,5S)-3-(6-chloro-3-pyridinyl)-5-methyl-4-morpholinyl)methanone and ((3R)-4-amino-3-methyl-1,3-dihydrofuro[3,4-c]quinolin-8-yl)((3S,5R)-3-(6-chloro-3-pyridinyl)-5-methyl-4-morpholinyl)methanone], the pIC50 is 7.15 in the assay with HCT116 MTAP null cells (HCT116-MTAP null, 144 h) and 5.52 with HCT116 WT cells (Homo sapiens, HCT-116, 144 h).

For the molecule `CCOc1ccc(C2COCCN2C(=O)c2cc3c4c(c(N)nc3cn2)[C@@H](C)OC4)nn1` (mixture of isomers) [Example 325, ((3R)-4-amino-3-methyl-1,3-dihydrofuro[3,4-c][1,7]naphthyridin-8-yl)((3R)-3-(6-ethoxy-3-pyridazinyl)-4-morpholinyl)methanone and ((3R)-4-amino-3-methyl-1,3-dihydrofuro[3,4-c][1,7]naphthyridin-8-yl)((3S)-3-(6-ethoxy-3-pyridazinyl)-4-morpholinyl)methanone], the pIC50 is 6.11 with HCT116 MTAP null cells (HCT116-MTAP null, 144 h) and under 5.00 in the assay with HCT116 WT cells (Homo sapiens, HCT-116, 144 h).

Consider `Cn1ncc2c(N)nc3cc(F)c(C(=O)N4CC(c5ccc(C(F)(F)F)cc5)C4)cc3c21` [Example 427, (4-amino-7-fluoro-1-methyl-1H-pyrazolo[4,3-c]quinolin-8-yl)(3-(4-(trifluoromethyl)phenyl)-1-azetidinyl)methanone], for which the negative logarithm of the IC50 (pIC50) with HCT116 MTAP null cells (HCT116-MTAP null, 144 h) was 7.40; in the assay on HCT116 WT cells (Homo sapiens, HCT-116, 144 h) it was 5.60.

As to `Nc1nc2cnc(C(=O)N3CCOC[C@H]3c3ccc(C(F)(F)F)s3)cc2c2c1COC2` (single isomer, unassigned) [Example 616], the negative logarithm of the IC50 (pIC50) in the assay with HCT116 MTAP null cells (HCT116-MTAP null, 144 h) was 5.49; in the assay on HCT116 WT cells (Homo sapiens, HCT-116, 144 h), under 5.00.

Consider `Nc1nc2ccc(C(=O)N3CCOCC3c3ncccn3)cc2c2c1COC2` (centres unmarked) [Example 300, (4-amino-1,3-dihydrofuro[3,4-c]quinolin-8-yl)(3-(pyrimidin-2-yl)morpholino)methanone], for which the pIC50 with HCT116 MTAP null cells (HCT116-MTAP null, 144 h) was under 6.00; in the assay on HCT116 WT cells (Homo sapiens, HCT-116, 144 h) it was under 5.00.

Take `C[C@@H]1COC[C@H](c2ccc(C(F)(F)F)cn2)N1C(=O)c1ccc2nc(N)c3c(cnn3C)c2c1` [Example 370, (4-amino-3-methyl-3H-pyrazolo[3,4-c]quinolin-8-yl)((3R,5S)-3-methyl-5-(5-(trifluoromethyl)-2-pyridinyl)-4-morpholinyl)methanone]: the negative logarithm of the IC50 (pIC50) was 7.52 in the assay on HCT116 MTAP null cells (HCT116-MTAP null, 144 h) and 5.69 in the assay on HCT116 WT cells (Homo sapiens, HCT-116, 144 h).

Take `Nc1nc2cnc(C(=O)N3CCOC[C@@H]3c3ccc(OC(F)F)nc3)cc2c2c1COC2.Nc1nc2cnc(C(=O)N3CCOC[C@H]3c3ccc(OC(F)F)nc3)cc2c2c1COC2` [Example 394, (4-amino-1,3-dihydrofuro[3,4-c][1,7]naphthyridin-8-yl)((3R)-3-(6-(difluoromethoxy)-3-pyridinyl)-4-morpholinyl)methanone (4-amino-1,3-dihydrofuro[3,4-c][1,7]naphthyridin-8-yl)((3S)-3-(6-(difluoromethoxy)-3-pyridinyl)-4-morpholinyl)methanone]: the values for the negative logarithm of the IC50 (pIC50) in the assay on HCT116 MTAP null cells and with HCT116 WT cells were 6.20 and 4.44, respectively.

`CC(C)C[C@H]1COC[C@@H](c2ccc(C(F)(F)F)cc2)N1C(=O)c1cc2c3c(c(N)nc2cn1)COC3` (single isomer, unassigned) [Example 567]: the negative logarithm of the IC50 (pIC50) was 5.67 in the assay on HCT116 MTAP null cells (HCT116-MTAP null, 144 h) and under 5.00 in the assay with HCT116 WT cells (Homo sapiens, HCT-116, 144 h).

On to `C[C@H]1OCc2c1c(N)nc1cnc(C(=O)N3CCOC[C@@H]3c3ccc(S(F)(F)(F)(F)F)cc3)cc21` [Example 417, ((3R)-4-amino-3-methyl-1,3-dihydrofuro[3,4-c][1,7]naphthyridin-8-yl)((3S)-3-(4-(pentafluoro-lambda~6~-sulfanyl)phenyl)-4-morpholinyl)methanone], for which the negative logarithm of the IC50 (pIC50) with HCT116 MTAP null cells (HCT116-MTAP null, 144 h) is 7.77; in the assay with HCT116 WT cells (Homo sapiens, HCT-116, 144 h), 6.28.

As to `C[C@H]1OCc2c1c(N)nc1ccc(C(=O)N3C[C@@H](c4ccccc4)[C@@H]4COCC[C@@H]43)cc21` [Example 399, ((3R)-4-amino-3-methyl-1,3-dihydrofuro[3,4-c]quinolin-8-yl)((3R,3aS,7aS)-3-phenylhexahydropyrano[4,3-b]pyrrol-1(4H)-yl)methanone], the negative logarithm of the IC50 (pIC50) in the assay on HCT116 MTAP null cells (HCT116-MTAP null, 144 h) was 6.71; in the assay on HCT116 WT cells (Homo sapiens, HCT-116, 144 h) it was 4.88.

As to `Nc1nc2cnc(C(=O)N3CCOC[C@@H]3c3ccc(C(F)(F)F)nn3)cc2c2c1COC2` [Example 549, (4-amino-1,3-dihydrofuro[3,4-c][1,7]naphthyridin-8-yl)((3S)-3-(6-(trifluoromethyl)-3-pyridazinyl)-4-morpholinyl)methanone], the pIC50 is 6.25 with HCT116 MTAP null cells (HCT116-MTAP null, 144 h) and 4.67 with HCT116 WT cells (Homo sapiens, HCT-116, 144 h).

`CC1OCc2c1c(N)nc1ccc(C(=O)N3C(C)COCC3c3ccc(OC(F)F)nn3)cc21` (mixture of isomers) [Example 317, ((3R)-4-amino-3-methyl-1,3-dihydrofuro[3,4-c]quinolin-8-yl)((3R,5S)-3-(6-(difluoromethoxy)-3-pyridazinyl)-5-methyl-4-morpholinyl)methanone and ((3R)-4-amino-3-methyl-1,3-dihydrofuro[3,4-c]quinolin-8-yl)((3S,5R)-3-(6-(difluoromethoxy)-3-pyridazinyl)-5-methyl-4-morpholinyl)methanone]: the values for the pIC50 in the assay with HCT116 MTAP null cells and with HCT116 WT cells were 7.28 and 5.63, respectively.

As to `CC(=O)N1CCN(C(=O)c2cc3c4c(c(N)nc3cn2)COC4)[C@@H](c2ccc(C(F)(F)F)cc2)C1` [Example 624, (S)-1-(4-(4-Amino-1,3-dihydrofuro[3,4-c][1,7]naphthyridine-8-carbonyl)-3-(4-(trifluoromethyl)phenyl)piperazin-1-yl)ethan-1-one], the negative-log IC50 (pIC50) was 6.46 in the assay with HCT116 MTAP null cells (HCT116-MTAP null, 144 h) and 5.07 with HCT116 WT cells (Homo sapiens, HCT-116, 144 h).

For the molecule `C[C@H]1OCc2c1c(N)nc1ccc(C(=O)N3CC[C@](F)(c4ccc(C(F)(F)F)cc4)C3)cc21` [Example 438, ((3R)-4-amino-3-methyl-1,3-dihydrofuro[3,4-c]quinolin-8-yl)((3S)-3-fluoro-3-(4-(trifluoromethyl)phenyl)-1-pyrrolidinyl)methanone], the negative-log IC50 (pIC50) with HCT116 MTAP null cells (HCT116-MTAP null, 144 h) was 6.06; in the assay with HCT116 WT cells (Homo sapiens, HCT-116, 144 h), 4.82.

In the case of `Nc1nc2cnc(C(=O)N3CCC(F)(F)C[C@H]3c3ccc(OC(F)(F)F)cc3)cc2c2c1COC2` (single isomer, unassigned) [Example 601], the negative logarithm of the IC50 (pIC50) is under 5.00 in the assay on HCT116 MTAP null cells (HCT116-MTAP null, 144 h) and under 5.00 with HCT116 WT cells (Homo sapiens, HCT-116, 144 h).

As to `CCOc1ccc(C2COCCN2C(=O)c2cc3c4c(c(N)nc3cc2Cl)COC4)nn1` (racemic) [Example 391, (4-amino-7-chloro-1,3-dihydrofuro[3,4-c]quinolin-8-yl)((3R)-3-(6-ethoxy-3-pyridazinyl)-4-morpholinyl)methanone and (4-amino-7-chloro-1,3-dihydrofuro[3,4-c]quinolin-8-yl)((3S)-3-(6-ethoxy-3-pyridazinyl)-4-morpholinyl)methanone], the negative-log IC50 (pIC50) in the assay on HCT116 MTAP null cells (HCT116-MTAP null, 144 h) is 7.14; in the assay on HCT116 WT cells (Homo sapiens, HCT-116, 144 h) it was 5.47.

For `COc1ccc([C@H]2COC[C@@H](C)N2C(=O)c2cc3c4c(c(N)nc3cc2F)[C@@H](C)OC4)nn1` [Example 552, ((3R)-4-amino-7-fluoro-3-methyl-1,3-dihydrofuro[3,4-c]quinolin-8-yl)((3S,5R)-3-(6-methoxy-3-pyridazinyl)-5-methyl-4-morpholinyl)methanone], the pIC50 was 7.89 in the assay with HCT116 MTAP null cells (HCT116-MTAP null, 144 h) and 6.43 in the assay with HCT116 WT cells (Homo sapiens, HCT-116, 144 h).

With `Nc1nc2ccc(C(=O)N3CCOCC3c3ccc(F)c(OC(F)(F)F)c3)cc2c2c1COC2` (racemic) [Example 341, (4-amino-1,3-dihydrofuro[3,4-c]quinolin-8-yl)((3R)-3-(4-fluoro-3-(trifluoromethoxy)phenyl)-4-morpholinyl)methanone and (4-amino-1,3-dihydrofuro[3,4-c]quinolin-8-yl)((3S)-3-(4-fluoro-3-(trifluoromethoxy)phenyl)-4-morpholinyl)methanone], the pIC50 in the assay with HCT116 MTAP null cells (HCT116-MTAP null, 144 h) was 6.06; with HCT116 WT cells (Homo sapiens, HCT-116, 144 h) it was 4.88.
